Tests used:
Assay type in all cases: biochemical
JAK1-JH1JH2 = JAK1-JH1JH2 (Homo sapiens (Human), UniProt P23458); experiment: Enzymatic inhibition assay (RapidFire HTMS), JAK1; settings: 12.5 μM ATP, 200 μM substrate; read-out: JAK1-JH2JH1 IC50
How it was run: (§1)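 Quenched with 0.5% TFA plus internal-standard peptide; phosphorylated product quantified by RapidFire C4 SPE–ESI-MS, 11-point 1:3 or 1:4 dilutions in duplicate.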

JAK2-JH1JH2 = JAK2-JH1JH2 (Homo sapiens (Human), UniProt O60674); experiment: Enzymatic inhibition assay (RapidFire HTMS), JAK2; settings: 30 μM ATP, 40 μM substrate
Sequence of JAK2-JH1JH2 (O60674 532-1132): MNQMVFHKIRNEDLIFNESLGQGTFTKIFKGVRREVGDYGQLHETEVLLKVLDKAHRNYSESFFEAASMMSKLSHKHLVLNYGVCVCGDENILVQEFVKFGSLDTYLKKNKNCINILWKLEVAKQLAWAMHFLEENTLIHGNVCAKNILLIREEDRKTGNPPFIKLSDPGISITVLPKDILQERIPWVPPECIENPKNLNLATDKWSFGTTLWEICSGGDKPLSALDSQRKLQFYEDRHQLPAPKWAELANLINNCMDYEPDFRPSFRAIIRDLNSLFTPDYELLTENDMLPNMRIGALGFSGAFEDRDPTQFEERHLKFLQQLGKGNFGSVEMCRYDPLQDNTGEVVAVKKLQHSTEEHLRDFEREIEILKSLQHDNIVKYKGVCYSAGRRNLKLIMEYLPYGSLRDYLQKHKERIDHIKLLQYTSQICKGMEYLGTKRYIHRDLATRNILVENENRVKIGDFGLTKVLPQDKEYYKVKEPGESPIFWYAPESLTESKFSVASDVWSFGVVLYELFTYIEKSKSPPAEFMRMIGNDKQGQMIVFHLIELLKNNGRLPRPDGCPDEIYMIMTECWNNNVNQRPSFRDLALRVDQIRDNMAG
How it was run: as §1

Tyk2-JH1JH2 = Tyk2-JH1JH2 (Homo sapiens (Human), UniProt P29597, C1142A/C936A); experiment: Enzymatic inhibition assay (RapidFire HTMS), Tyk2; settings: 50 μM ATP, 200 μM substrate
Sequence of Tyk2-JH1JH2 (P29597 580-1182 C936A/C1142A): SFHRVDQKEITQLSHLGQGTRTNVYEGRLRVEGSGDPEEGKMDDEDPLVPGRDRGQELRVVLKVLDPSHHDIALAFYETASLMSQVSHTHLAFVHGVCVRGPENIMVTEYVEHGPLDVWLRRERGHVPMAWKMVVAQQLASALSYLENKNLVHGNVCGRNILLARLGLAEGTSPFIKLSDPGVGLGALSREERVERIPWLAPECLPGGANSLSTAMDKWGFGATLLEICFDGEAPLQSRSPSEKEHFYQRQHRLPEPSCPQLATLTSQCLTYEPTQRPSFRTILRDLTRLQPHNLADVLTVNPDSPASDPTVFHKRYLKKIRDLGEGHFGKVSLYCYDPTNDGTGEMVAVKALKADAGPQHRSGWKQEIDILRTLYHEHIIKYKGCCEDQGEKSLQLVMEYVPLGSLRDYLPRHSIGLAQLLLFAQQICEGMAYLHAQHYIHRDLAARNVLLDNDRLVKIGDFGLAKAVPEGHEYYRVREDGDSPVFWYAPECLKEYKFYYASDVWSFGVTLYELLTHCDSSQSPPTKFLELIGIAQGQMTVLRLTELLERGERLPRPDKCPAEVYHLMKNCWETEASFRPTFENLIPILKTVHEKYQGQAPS
How it was run: as §1

JAK3-JH1JH2 = JAK3-JH1JH2 (Homo sapiens (Human), UniProt P52333); experiment: Enzymatic inhibition assay (RapidFire HTMS), JAK3; settings: 150 μM ATP, 40 μM substrate
Sequence of JAK3-JH1JH2 (P52333 512-1124): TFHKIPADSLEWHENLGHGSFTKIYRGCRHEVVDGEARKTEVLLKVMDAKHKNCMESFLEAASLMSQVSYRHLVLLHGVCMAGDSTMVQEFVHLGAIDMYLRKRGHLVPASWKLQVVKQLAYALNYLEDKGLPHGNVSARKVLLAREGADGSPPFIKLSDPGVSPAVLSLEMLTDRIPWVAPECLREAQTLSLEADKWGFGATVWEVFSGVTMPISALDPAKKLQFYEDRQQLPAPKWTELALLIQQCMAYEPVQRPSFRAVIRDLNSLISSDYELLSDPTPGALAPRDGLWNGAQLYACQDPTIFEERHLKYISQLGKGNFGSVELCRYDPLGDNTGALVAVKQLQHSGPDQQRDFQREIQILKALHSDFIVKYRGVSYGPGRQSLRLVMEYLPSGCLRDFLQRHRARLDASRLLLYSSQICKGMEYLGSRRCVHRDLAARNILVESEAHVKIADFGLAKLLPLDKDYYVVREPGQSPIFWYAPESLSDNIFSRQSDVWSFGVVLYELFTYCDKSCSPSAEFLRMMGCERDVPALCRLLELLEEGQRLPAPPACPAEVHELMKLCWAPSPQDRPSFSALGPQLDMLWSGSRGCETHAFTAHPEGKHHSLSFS
How it was run: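 JAK3 JH1JH2 reaction incubated 45 min at 25 °C, then quenched with 0.5% TFA containing 0.15 μM internal standard peptide. Phosphopeptide product measured by RapidFire C4 SPE–ESI MS (positive mode); inhibition from product decrease versus uninhibited enzyme, 11-point 1:3 or 1:4 dilutions in duplicate.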

Sequence of JAK1-JH1JH2 (P23458 574-1154): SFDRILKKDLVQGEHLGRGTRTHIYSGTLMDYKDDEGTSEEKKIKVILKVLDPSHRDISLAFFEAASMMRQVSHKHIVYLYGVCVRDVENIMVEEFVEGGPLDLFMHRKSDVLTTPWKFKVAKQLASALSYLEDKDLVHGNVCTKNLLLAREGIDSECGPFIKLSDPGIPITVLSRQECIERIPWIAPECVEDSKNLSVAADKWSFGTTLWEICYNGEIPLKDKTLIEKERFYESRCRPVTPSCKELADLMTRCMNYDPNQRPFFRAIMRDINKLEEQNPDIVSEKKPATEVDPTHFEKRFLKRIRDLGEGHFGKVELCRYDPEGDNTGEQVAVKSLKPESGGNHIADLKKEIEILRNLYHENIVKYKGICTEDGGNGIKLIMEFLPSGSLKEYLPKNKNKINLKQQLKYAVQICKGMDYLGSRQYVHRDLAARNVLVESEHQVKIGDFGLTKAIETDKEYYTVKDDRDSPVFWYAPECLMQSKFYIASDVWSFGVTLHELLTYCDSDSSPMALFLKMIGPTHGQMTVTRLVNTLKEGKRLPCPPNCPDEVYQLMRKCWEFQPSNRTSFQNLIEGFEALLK

Structure (SMILES) | IC50 (JAK1-JH1JH2) [nM] | IC50 (JAK2-JH1JH2) [nM] | IC50 (Tyk2-JH1JH2) [nM] | IC50 (JAK3-JH1JH2) [nM]
C#Cc1ccc(C(=O)c2ccc(CCc3nc4cnc5[nH]ccc5c4n3[C@H]3CC[C@H](CC#N)CC3)cc2)cc1 [Ex. 170, 2-((1r,4r)-4-(2-(4-(4-Ethynylbenzoyl)phenethyl)imidazo[4,5-d]pyrrolo[2,3-b]pyridin-1(6H)-yl)cyclohexyl)acetonitrile] | 1.5 | 80.9 | 26.4 | > 12500
CC(C)NC(=O)c1nc2cnc3[nH]ccc3c2n1[C@H]1CC[C@H](CC#N)CC1 [Ex. 172, 1-((1r,4r)-4-(Cyanomethyl)cyclohexyl)-N-isopropyl-1,6-dihydroimidazo[4,5-d]pyrrolo[2,3-b]pyridine-2-carboxamide] | 2.1 | 75.2 | 53.5 | 3060
COCCCNC(=O)c1nc2cnc3[nH]ccc3c2n1[C@H]1CC[C@H](CC#N)CC1 [Ex. 173, 1-((1r,4r)-4-(Cyanomethyl)cyclohexyl)-N-(3-methoxypropyl)-1,6-dihydroimidazo[4,5-d]pyrrolo[2,3-b]pyridine-2-carboxamide] | 1.3 | 28 | 55.9 | 732
N#CC[C@H]1CC[C@H](n2c(C(=O)NCC3CC3)nc3cnc4[nH]ccc4c32)CC1 [Ex. 174, 1-((1r,4r)-4-(cyanomethyl)cyclohexyl)-N-(cyclopropylmethyl)-1,6-dihydroimidazo[4,5-d]pyrrolo[2,3-b]pyridine-2-carboxamide] | 2.2 | 57.2 | 55.2 | 604
N#CC[C@H]1CC[C@H](n2c(C(=O)NC3CCOCC3)nc3cnc4[nH]ccc4c32)CC1 [Ex. 178, 1-((1r,4r)-4-(Cyanomethyl)cyclohexyl)-N-(tetrahydro-2H-pyran-4-yl)-1,6-dihydroimidazo[4,5-d]pyrrolo[2,3-b]pyridine-2-carboxamide] | 3.1 | 60 | 42.2 | 1310
COCC(C)NC(=O)c1nc2cnc3[nH]ccc3c2n1[C@H]1CC[C@H](CC#N)CC1 (stereo partly shown) [Ex. 179, 1-((1r,4r)-4-(Cyanomethyl)cyclohexyl)-N-(1-methoxypropan-2-yl)-1,6-dihydroimidazo[4,5-d]pyrrolo[2,3-b]pyridine-2-carboxamide] | 1.4 | 20.9 | 30 | 641
N#CC[C@H]1CC[C@H](n2c(C(=O)N3CCOCC3)nc3cnc4[nH]ccc4c32)CC1 [Ex. 180, 2-((1r,4r)-4-(2-(Morpholine-4-carbonyl)imidazo[4,5-d]pyrrolo[2,3-b]pyridin-1(6H)-yl)cyclohexyl)acetonitrile] | 3.4 | 149 | 129 | 2290
N#CC[C@H]1CC[C@H](n2c(C(=O)N3CCC(O)CC3)nc3cnc4[nH]ccc4c32)CC1 [Ex. 181, 2-((1r,4r)-4-(2-(4-Hydroxypiperidine-1-carbonyl)imidazo[4,5-d]pyrrolo[2,3-b]pyridin-1(6H)-yl)cyclohexyl)acetonitrile] | 5.4 | 331 | 159 | 6300
N#CC[C@H]1CC[C@H](n2c(-c3cnn(CC(=O)NC4CC4)c3)nc3cnc4[nH]ccc4c32)CC1 [Ex. 185, 2-(4-(1-((1r,4r)-4-(Cyanomethyl)cyclohexyl)-1,6-dihydroimidazo[4,5-d]pyrrolo[2,3-b]pyridin-2-yl)-1H-pyrazol-1-yl)-N-cyclopropylacetamide] | 2.1 | 19.8 | 36.4 | 150
N#CC[C@H]1CC[C@H](n2c(-c3cccnc3N)nc3cnc4[nH]ccc4c32)CC1 [Ex. 186, 2-((1r,4r)-4-(2-(2-aminopyridin-3-yl)imidazo[4,5-d]pyrrolo[2,3-b]pyridin-1(6H)-yl)cyclohexyl)acetonitrile] | 3.7 | 82.2 | 254 | 4650
CC(C)(O)Cn1cc(-c2nc3cnc4[nH]ccc4c3n2[C@H]2CC[C@H](CC#N)CC2)cn1 [Ex. 187, 2-((1r,4r)-4-(2-(1-(2-Hydroxy-2-methylpropyl)-1H-pyrazol-4-yl)imidazo[4,5-d]pyrrolo[2,3-b]pyridin-1(6H)-yl)cyclohexyl)acetonitrile] | 1.3 | 24.6 | 60 | 180
CC(C)(O)CNC(=O)Cc1nc2cnc3[nH]cc(Cl)c3c2n1[C@H]1CC[C@H](CC#N)CC1 [Ex. 188, 2-(8-chloro-1-((1r,4r)-4-(cyanomethyl)cyclohexyl)-1,6-dihydroimidazo[4,5-d]pyrrolo[2,3-b]pyridin-2-yl)-N-(2-hydroxy-2-methylpropyl)acetamide] | 3.2 | 36.7 | 122 | 13.1

Results, then the compound that gave them:

IC50 (JAK1-JH1JH2) [nM] | IC50 (JAK2-JH1JH2) [nM] | IC50 (Tyk2-JH1JH2) [nM] | IC50 (JAK3-JH1JH2) [nM] | Structure (SMILES)
2 | 33.9 | 18.8 | 211 | CC(C)NC(=O)NCc1nc2cnc3[nH]ccc3c2n1[C@H]1CC[C@H](CC#N)CC1 [Ex. 171, 1-((1-((1r,4r)-4-(Cyanomethyl)cyclohexyl)-1,6-dihydroimidazo[4,5-d]pyrrolo[2,3-b]pyridin-2-yl)methyl)-3-isopropylurea]
2.5 | 27.8 | 49.5 | 839 | N#CC[C@H]1CC[C@H](n2c(C(=O)NC3CC3)nc3cnc4[nH]ccc4c32)CC1 [Ex. 175, 1-((1r,4r)-4-(Cyanomethyl)cyclohexyl)-N-cyclopropyl-1,6-dihydroimidazo[4,5-d]pyrrolo[2,3-b]pyridine-2-carboxamide]
2.6 | 157 | 127 | 3250 | COC1CCN(C(=O)c2nc3cnc4[nH]ccc4c3n2[C@H]2CC[C@H](CC#N)CC2)CC1 [Ex. 176, 2-((1r,4r)-4-(2-(4-Methoxypiperidine-1-carbonyl)imidazo[4,5-d]pyrrolo[2,3-b]pyridin-1(6H)-yl)cyclohexyl)acetonitrile]
2.7 | 161 | 102 | 2370 | N#CC[C@H]1CC[C@H](n2c(C(=O)N3CCC(C#N)CC3)nc3cnc4[nH]ccc4c32)CC1 [Ex. 177, 1-(1-((1r,4r)-4-(Cyanomethyl)cyclohexyl)-1,6-dihydroimidazo[4,5-d]pyrrolo[2,3-b]pyridine-2-carbonyl)piperidine-4-carbonitrile]
2.8 | 24.3 | 52.5 | 276 | CCOC(=O)Cn1cc(-c2nc3cnc4[nH]ccc4c3n2[C@H]2CC[C@H](CC#N)CC2)cn1 [Ex. 182, Ethyl 2-(4-(1-((1r,4r)-4-(cyanomethyl)cyclohexyl)-1,6-dihydroimidazo[4,5-d]pyrrolo[2,3-b]pyridin-2-yl)-1H-pyrazol-1-yl)acetate]
4.3 | 52.9 | 118 | 645 | Cc1nc(C)c(-c2nc3cnc4[nH]ccc4c3n2[C@H]2CC[C@H](CC#N)CC2)o1 [Ex. 183, 2-((1r,4r)-4-(2-(2,4-dimethyloxazol-5-yl)imidazo[4,5-d]pyrrolo[2,3-b]pyridin-1(6H)-yl)cyclohexyl)acetonitrile]
25.5 | 230 | 319 | 1230 | Cc1nc(C)c(-c2nc3cnc4[nH]ccc4c3n2[C@H]2CC[C@H](CC#N)CC2)s1 [Ex. 184, 2-((1r,4r)-4-(2-(2,4-dimethylthiazol-5-yl)imidazo[4,5-d]pyrrolo[2,3-b]pyridin-1(6H)-yl)cyclohexyl)acetonitrile]

Reference: patent US10981911B2, “Imidazopyrrolopyridine as inhibitors of the JAK family of kinases” (Janssen Pharmaceutica NV, priority 2016, dated 2021)
